Measurements as given in patent US9187472B2 (AbbVie Inc., priority 2012, dated 2015).
pIC50: −log10 of the molar value.

Columns and labels:
[1] = system: PC3 cells; test: NAMPT Cell Proliferation Assay; type: cell-based; details: Homo sapiens, PC-3, 120 h, 5 days incubation, cell viability by Cell Titer Glo
How it was run: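 IC50 values derive from sigmoidal dose-response fits of percent inhibition of PC3 viability, measured by luminescence after 5 days of compound treatment. Cells (500/well, RPMI containing 10% heat-inactivated FBS) are allowed to attach overnight, and compounds are tested at 10-fold dilutions between 10 μM and 1×10^−5 μM.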

[2] = target: NAMPT (human, recombinant, C-terminally His-tagged) (Homo sapiens, UniProt P43490); test: Time-Resolved Fluorescence Resonance Energy Transfer (TR-FRET) Binding Assay of NAMPT; details: without substrates; 6.8 nM NAMPT, 200 nM probe, 3 hours equilibration
NAMPT (human, recombinant, C-terminally His-tagged), sequence (P43490 whole entry): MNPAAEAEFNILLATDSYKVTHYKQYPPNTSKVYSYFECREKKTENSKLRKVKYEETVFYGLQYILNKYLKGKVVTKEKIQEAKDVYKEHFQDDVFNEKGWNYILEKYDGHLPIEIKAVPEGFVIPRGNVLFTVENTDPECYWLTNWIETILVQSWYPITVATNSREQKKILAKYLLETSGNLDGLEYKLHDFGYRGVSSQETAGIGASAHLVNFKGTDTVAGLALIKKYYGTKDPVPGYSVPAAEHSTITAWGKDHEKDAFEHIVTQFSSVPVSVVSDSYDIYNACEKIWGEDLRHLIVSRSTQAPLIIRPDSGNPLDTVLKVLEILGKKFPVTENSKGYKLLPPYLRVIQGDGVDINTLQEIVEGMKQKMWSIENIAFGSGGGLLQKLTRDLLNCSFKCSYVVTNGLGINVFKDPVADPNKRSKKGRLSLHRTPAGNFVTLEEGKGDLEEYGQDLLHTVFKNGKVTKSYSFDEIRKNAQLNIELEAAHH
How it was run: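 Compounds, diluted in half-log steps, are mixed with enzyme (6.8 nM), fluorescent probe (200 nM) and Tb-anti-His antibody (1 nM) in pH 7.5 HEPES buffer containing 10 mM MgCl2 and 1 mM DTT. Plates equilibrate 3 h at room temperature; normalized FRET ratios are fitted by four-parameter logistic regression for IC50.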

[3] = target: NAMPT (Homo sapiens, UniProt P43490); test: TR-FRET Binding Assay of NAMPT with PRPP; details: with 200 μM PRPP and 2.5 mM ATP; 2 nM NAMPT, 2 nM probe, 16 hours equilibration
NAMPT, sequence (P43490 whole entry): as above
How it was run: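 Compounds were mixed with 2 nM His-tagged NAMPT, 2 nM probe, 1 nM terbium anti-His antibody, 200 μM PRPP and 2.5 mM ATP in assay buffer with 2% DMSO, then left 16 hours to permit possible enzymatic processing of compounds before time-resolved FRET was measured.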

Compound	pIC50 [1]	pIC50 [2]	pIC50 [3]
O=C(NCc1ccn2ccnc2c1)c1ccc(-c2cnn(CC3CCOC3)c2)o1 (stereo not drawn) [Example 478, N-(imidazo[1,2-a]pyridin-7-ylmethyl)-5-[1-(tetrahydrofuran-3-ylmethyl)-1H-pyrazol-4-yl]furan-2-carboxamide]	7.51	6.72	9.62
O=C(NCc1ccn2ccnc2c1)c1ccc(-c2cnn(CC3CCC3)c2)o1 [Example 481, 5-[1-(cyclobutylmethyl)-1H-pyrazol-4-yl]-N-(imidazo[1,2-a]pyridin-7-ylmethyl)furan-2-carboxamide]	8.24	7.24	9.75
CC1(Cn2cc(-c3ccc(C(=O)NCc4ccn5ccnc5c4)o3)cn2)COC1 [Example 482, N-(imidazo[1,2-a]pyridin-7-ylmethyl)-5-{1-[(3-methyloxetan-3-yl)methyl]-1H-pyrazol-4-yl}furan-2-carboxamide]	8.65	7.12	9.59
O=C(NCc1ccn2ccnc2c1)c1ccc(C2CCN(C(=O)c3ccco3)CC2)cc1 [Example 484, 4-[1-(furan-2-ylcarbonyl)piperidin-4-yl]-N-(imidazo[1,2-a]pyridin-7-ylmethyl)benzamide]	8.02	7.10	9.72
CC(C)Cn1cc(-c2ccc(NC(=O)NCc3ccn4ccnc4c3)cc2)cn1 [Example 486, 1-(imidazo[1,2-a]pyridin-7-ylmethyl)-3-{4-[1-(2-methylpropyl)-1H-pyrazol-4-yl]phenyl}urea]	7.63	7.04	9.63
CCCn1cc(-c2ccc(NC(=O)NCc3ccn4ccnc4c3)cc2)cn1 [Example 487, 1-(imidazo[1,2-a]pyridin-7-ylmethyl)-3-[4-(1-propyl-1H-pyrazol-4-yl)phenyl]urea]	7.08	6.84	9.48
O=C(NCc1ccn2ccnc2c1)c1ccc(Oc2ccccc2)cc1 [Example 489, N-(imidazo[1,2-a]pyridin-7-ylmethyl)-4-phenoxybenzamide]	< 5.00	5.91	9.58
CC(C)C(=O)N1CC(c2ccc(C(=O)NCc3ccn4ccnc4c3)cc2)C1 [Example 490, N-(imidazo[1,2-a]pyridin-7-ylmethyl)-4-[1-(2-methylpropanoyl)azetidin-3-yl]benzamide]	7.05	6.12	9.57
O=C(NCc1ccn2ccnc2c1)c1ccc(O[C@@H]2CCN(C(=O)c3ccccc3)C2)cc1 [Example 493, 4-{[(3R)-1-benzoylpyrrolidin-3-yl]oxy}-N-(imidazo[1,2-a]pyridin-7-ylmethyl)benzamide]	6.31	5.89	9.34
CC[C@H](C)C(=O)N1CC[C@@H](Oc2ccc(C(=O)NCc3ccn4ccnc4c3)cc2)C1 [Example 495, N-(imidazo[1,2-a]pyridin-7-ylmethyl)-4-({(3R)-1-[(25)-2-methylbutanoyl]pyrrolidin-3-yl}oxy)benzamide]	6.90	5.83	9.40
CC(C)Cn1cc(-c2ccc(C(=O)NCc3ccn4ncnc4c3)s2)cn1 [Example 497, 5-[1-(2-methylpropyl)-1H-pyrazol-4-yl]-N-([1,2,4]triazolo[1,5-a]pyridin-7-ylmethyl)thiophene-2-carboxamide]	6.13	7.62	8.54
O=C(NCc1ccn2ccnc2c1)c1ccc(C2CCN(C(=O)C3CCCCC3)CC2)cc1 [Example 502, 4-[1-(cyclohexylcarbonyl)piperidin-4-yl]-N-(imidazo[1,2-a]pyridin-7-ylmethyl)benzamide]	7.78	6.77	9.41
O=C(NCc1ccn2ccnc2c1)c1ccc(C2CCN(C(=O)CC(F)(F)F)CC2)cc1 [Example 504, N-(imidazo[1,2-a]pyridin-7-ylmethyl)-4-[1-(3,3,3-trifluoropropanoyl)piperidin-4-yl]benzamide]	7.81	6.73	9.44
CCCC(=O)N1CCC(c2ccc(C(=O)NCc3ccn4ccnc4c3)cc2)CC1 [Example 505, 4-(1-butanoylpiperidin-4-yl)-N-(imidazo[1,2-a]pyridin-7-ylmethyl)benzamide]	7.52	6.60	9.45

Continued by rising pIC50 [1], values first:

pIC50 [1]	pIC50 [2]	pIC50 [3]	Compound
5.11	< 5.00	8.72	CC(C)(C)OC(=O)N1CCC(c2ccc(C(=O)Nc3ccc4ncc(Cl)n4c3)cc2)CC1 [Example 491, tert-butyl 4-{4-[(3-chloroimidazo[1,2-a]pyridin-6-yl)carbamoyl]phenyl}piperidine-1-carboxylate]
5.15	6.70	8.94	O=C(NCc1ccn2ccnc2c1)Nc1ccc(Oc2ccccc2)cc1 [Example 496, 1-(imidazo[1,2-a]pyridin-7-ylmethyl)-3-(4-phenoxyphenyl)urea]
5.90	< 5.00	9.06	CC(C)C(=O)N1CC[C@@H](Oc2ccc(C(=O)NCc3ccn4ccnc4c3)cc2)C1 [Example 492, N-(imidazo[1,2-a]pyridin-7-ylmethyl)-4-{[(3R)-1-(2-methylpropanoyl)pyrrolidin-3-yl]oxy}benzamide]
5.91	5.12	9.15	O=C(NCc1ccn2ccnc2c1)c1ccc(O[C@@H]2CCN(C(=O)[C@H]3CCOC3)C2)cc1 [Example 494, N-(imidazo[1,2-a]pyridin-7-ylmethyl)-4-({(3R)-1-[(3S)-tetrahydrofuran-3-ylcarbonyl]pyrrolidin-3-yl}oxy)benzamide]
7.01	6.86	9.26	O=C(NCc1ccn2ccnc2c1)c1ccc(C2CCN(C(=O)c3cccs3)C2)cc1 (stereo not drawn) [Example 488, N-(imidazo[1,2-a]pyridin-7-ylmethyl)-4-[1-(thiophen-2-ylcarbonyl)pyrrolidin-3-yl]benzamide]
7.46	7.02	9.69	O=C(NCc1ccn2ccnc2c1)c1ccc(-c2cnn(CC3CCNCC3)c2)s1 [Example 485, N-(imidazo[1,2-a]pyridin-7-ylmethyl)-5-[1-(piperidin-4-ylmethyl)-1H-pyrazol-4-yl]thiophene-2-carboxamide]
7.66	6.74	9.77	Cc1ccc(C(=O)N2CCC(c3ccc(C(=O)NCc4ccn5ccnc5c4)cc3)CC2)cc1 [Example 500, N-(imidazo[1,2-a]pyridin-7-ylmethyl)-4-[1-(4-methylbenzoyl)piperidin-4-yl]benzamide]
7.75	6.51	9.77	O=C(NCc1ccn2ccnc2c1)c1ccc(C2CCN(C(=O)c3ccccn3)CC2)cc1 [Example 498, N-(imidazo[1,2-a]pyridin-7-ylmethyl)-4-[1-(pyridin-2-ylcarbonyl)piperidin-4-yl]benzamide]
7.91	6.89	9.24	CC(C)(O)Cn1cc(-c2ccc(C(=O)NCc3ccn4ccnc4c3)o2)cn1 [Example 483, 5-[1-(2-hydroxy-2-methylpropyl)-1H-pyrazol-4-yl]-N-(imidazo[1,2-a]pyridin-7-ylmethyl)furan-2-carboxamide]
8.09	7.20	9.61	O=C(NCc1ccn2ccnc2c1)c1ccc(-c2cnn(CC3CCCOC3)c2)o1 (stereo not drawn) [Example 479, N-(imidazo[1,2-a]pyridin-7-ylmethyl)-5-[1-(tetrahydro-2H-pyran-3-ylmethyl)-1H-pyrazol-4-yl]furan-2-carboxamide]
8.13	6.74	9.47	O=C(NCc1ccn2ccnc2c1)c1ccc(-c2cnn(CC3CCOCC3)c2)o1 [Example 480, N-(imidazo[1,2-a]pyridin-7-ylmethyl)-5-[1-(tetrahydro-2H-pyran-4-ylmethyl)-1H-pyrazol-4-yl]furan-2-carboxamide]
8.22	6.98	9.32	CCC(C)(C)C(=O)N1CCC(c2ccc(C(=O)NCc3ccn4ccnc4c3)cc2)CC1 [Example 501, 4-[1-(2,2-dimethylbutanoyl)piperidin-4-yl]-N-(imidazo[1,2-a]pyridin-7-ylmethyl)benzamide]
8.38	7.27	9.56	O=C(NCc1ccn2ccnc2c1)c1ccc(C2CCN(C(=O)c3cccs3)CC2)cc1 [Example 503, N-(imidazo[1,2-a]pyridin-7-ylmethyl)-4-[1-(thiophen-2-ylcarbonyl)piperidin-4-yl]benzamide]
8.49	7.14	9.63	O=C(NCc1ccn2ccnc2c1)c1ccc(-c2cnn(CC3CCCCO3)c2)o1 (stereo not drawn) [Example 477, N-(imidazo[1,2-a]pyridin-7-ylmethyl)-5-[1-(tetrahydro-2H-pyran-2-ylmethyl)-1H-pyrazol-4-yl]furan-2-carboxamide]
8.66	6.95	9.42	CC(C)(C)CC(=O)N1CCC(c2ccc(C(=O)NCc3ccn4ccnc4c3)cc2)CC1 [Example 499, 4-[1-(3,3-dimethylbutanoyl)piperidin-4-yl]-N-(imidazo[1,2-a]pyridin-7-ylmethyl)benzamide]
